Results as given in patent US20250101041A1, “POSITIVE ALLOSTERIC MODULATORS OF THE MUSCARINIC ACETYLCHOLINE RECEPTOR M4” (Vanderbilt University, priority 2022, published 2025).

Target: T1, human mAChR M4 (Homo sapiens, UniProt P08173)
T1 construct: expressed in transfected cells; host or cells: CHO-K1 (American Type Culture Collection), stably expressing hM4 and Gqi5
T1 sequence (P08173 1-479): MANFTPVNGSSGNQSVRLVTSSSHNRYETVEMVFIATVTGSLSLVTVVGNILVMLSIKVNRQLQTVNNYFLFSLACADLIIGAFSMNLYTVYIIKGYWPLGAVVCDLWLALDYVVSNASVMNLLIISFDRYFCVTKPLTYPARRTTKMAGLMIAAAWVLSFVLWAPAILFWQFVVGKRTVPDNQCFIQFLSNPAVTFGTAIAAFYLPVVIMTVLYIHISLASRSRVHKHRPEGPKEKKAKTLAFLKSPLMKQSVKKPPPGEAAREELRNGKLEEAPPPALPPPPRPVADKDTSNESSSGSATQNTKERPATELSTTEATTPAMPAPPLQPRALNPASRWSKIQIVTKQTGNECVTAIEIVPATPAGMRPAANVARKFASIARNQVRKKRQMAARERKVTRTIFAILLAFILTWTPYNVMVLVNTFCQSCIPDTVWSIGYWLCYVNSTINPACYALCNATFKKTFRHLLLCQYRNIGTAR
Test: mAChR M4 cell-based functional assay: calcium mobilization (Fluo-4, FDSS), potentiation of EC20 acetylcholine response in hM4-Gqi5 CHO-K1 cells
Conditions: human M4; for Emax at 30 µM: CHO-K1, % ACh maximum at 30 μM; for EC50: potentiation of EC20 acetylcholine response, calcium mobilization
Summary of the method: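 CHO-K1 cells stably co-expressing human M4 and chimeric Gqi5, loaded with Fluo-4 AM (50 min, 37 °C). Compounds in 11-point 1:3 series added first; EC20 acetylcholine added at 144 s and again at 230 s. Calcium read on FDSS at 1 Hz; EC50 and Emax from four-parameter logistic fit of potentiated EC20 response.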

| SMILES | Emax at 30 µM | EC50 |
| --- | --- | --- |
| Cc1cc2nccc(=O)n2nc1N1CCc2ncc(-c3cnccc3C#N)cc2C1 [Compound 1-319, 3-(6-(8-methyl-4-oxo-4H-pyrimido[1,2-b]pyridazin-7-yl)-5,6,7,8-tetrahydro-1,6-naphthyridin-3-yl)isonicotinonitrile] | 34% | 2640 nM |
| COCc1cc(=O)n2nc(N3CCc4ncc(-c5cc(F)ncc5F)cc4C3)c(C)cc2n1 [Compound 1-320, 7-(3-(2,5-difluoropyridin-4-yl)-7,8-dihydro-1,6-naphthyridin-6(5H)-yl)-2-(methoxymethyl)-8-methyl-4H-pyrimido[1,2-b] pyridazin-4-one] | 77% | 1470 nM |
| Cc1cc2nccc(=O)n2nc1N1CCc2ncc(-c3cn(C)nn3)cc2C1 [Compound 1-321, 8-methyl-7-(3-(1-methyl-1H-1,2,3-triazol-4-yl)-7,8-dihydro-1,6-naphthyridin-6(5H)-yl)-4H-pyrimido[1,2-b]pyridazin-4-one] | 61% | 2180 nM |
| Cc1cc2nccc(=O)n2nc1N1CCc2ncc(-c3cnc(C)n3C)cc2C1 [Compound 1-323, 7-(3-(1,2-dimethyl-1H-imidazol-5-yl)-7,8-dihydro-1,6-naphthyridin-6(5H)-yl)-8-methyl-4H-pyrimido[1,2-b]pyridazin-4-one] | 71% | 1040 nM |
| COCc1cc(=O)n2nc(N3CCc4ncc(-c5cncnc5)cc4C3)c(C)cc2n1 [Compound 1-324, 2-(methoxymethyl)-8-methyl-7-(3-(pyrimidin-5-yl)-7,8-dihydro-1,6-naphthyridin-6(5H)-yl)-4H-pyrimido[1,2-b] pyridazin-4-one] | 59% | – |
| Cc1cc2nccc(=O)n2nc1N1CCc2ncc(-c3cnn4c3COCC4)cc2C1 [Compound 1-325, 7-(3-(6,7-dihydro-4H-pyrazolo[5,1-c][1,4]oxazin-3-yl)-7,8-dihydro-1,6-naphthyridin-6(5H)-yl)-8-methyl-4H-pyrimido[1,2-b]pyridazin-4-one] | 68% | 921 nM |
| Cc1cc2nccc(=O)n2nc1N1CCc2ncc(-c3cnc(F)c(Cl)c3)cc2C1 [Compound 1-326, 7-(3-(5-chloro-6-fluoropyridin-3-yl)-7,8-dihydro-1,6-naphthyridin-6(5H)-yl)-8-methyl-4H-pyrimido[1,2-b]pyridazin-4-one] | 49% | 1480 nM |
| COCc1cc(=O)n2nc(N3CCc4ncc(-c5cc(F)ncc5C)cc4C3)c(C)cc2n1 [Compound 1-328, 7-(3-(2-fluoro-5-methylpyridin-4-yl)-7,8-dihydro-1,6-naphthyridin-6(5H)-yl)-2-(methoxymethyl)-8-methyl-4H-pyrimido[1,2-b] pyridazin-4-one] | 68% | 484 nM |
| Cc1cc2nccc(=O)n2nc1N1CCc2ncc(-c3cnc(Cl)cc3C(F)F)cc2C1 [Compound 1-329, 7-(3-(6-chloro-4-(difluoromethyl)pyridin-3-yl)-7,8-dihydro-1,6-naphthyridin-6(5H)-yl)-8-methyl-4H-pyrimido[1,2-b]pyridazin-4-one] | 78% | 1060 nM |
| Cc1cc2nccc(=O)n2nc1N1CCc2ncc(-c3cnc(F)c(F)c3)cc2C1 [Compound 1-331, 7-(3-(5,6-difluoropyridin-3-yl)-7,8-dihydro-1,6-naphthyridin-6(5H)-yl)-8-methyl-4H-pyrimido [1,2-b]pyridazin-4-one] | 53% | 1250 nM |
| Cc1cc2nccc(=O)n2nc1N1CCc2ncc(-c3ccc(Cl)nn3)cc2C1 [Compound 1-334, 7-(3-(6-chloropyridazin-3-yl)-7,8-dihydro-1,6-naphthyridin-6(5H)-yl)-8-methyl-4H-pyrimido [1,2-b]pyridazin-4-one] | 45% | 1230 nM |
| COCc1cc(=O)n2nc(N3CCc4ncc(-c5cc(F)c(F)cc5F)cc4C3)c(C)cc2n1 [Compound 1-335, 2-(methoxymethyl)-8-methyl-7-(3-(2,4,5-trifluorophenyl)-7,8-dihydro-1,6-naphthyridin-6(5H)-yl)-4H-pyrimido[1,2-b]pyridazin-4-one] | 68% | 576 nM |
| Cc1c(N2CCc3ncc(-c4ccccc4C(C)C)cc3C2)nn2c(=O)ccnc2c1C [Compound 1-340, 7-(3-(2-isopropylphenyl)-7,8-dihydro-1,6-naphthyridin-6(5H)-yl)-8,9-dimethyl-4H-pyrimido[1,2-b]pyridazin-4-one] | 48% | 503 nM |
| Cc1cc(F)c(F)c(-c2cnc3c(c2)CN(c2nn4c(=O)ccnc4c(C)c2C)CC3)c1 [Compound 1-341, 7-(3-(2,3-difluoro-5-methylphenyl)-7,8-dihydro-1,6-naphthyridin-6(5H)-yl)-8,9-dimethyl-4H-pyrimido[1,2-b]pyridazin-4-one] | 75% | 673 nM |
| COc1ccccc1-c1cnc2c(c1)CN(c1nn3c(=O)ccnc3c(C)c1C)CC2 [Compound 1-344, 7-(3-(2-methoxyphenyl)-7,8-dihydro-1,6-naphthyridin-6(5H)-yl)-8,9-dimethyl-4H-pyrimido[1,2-b]pyridazin-4-one] | 72% | 663 nM |

Further compounds by falling EC50, results first:

| Emax at 30 µM | EC50 | SMILES |
| --- | --- | --- |
| 68% | 477 nM | COCc1cc(=O)n2nc(N3CCc4ncc(-c5ccc(F)c(F)c5)cc4C3)c(C)cc2n1 [Compound 1-330, 7-(3-(3,4-difluorophenyl)-7,8-dihydro-1,6-naphthyridin-6(5H)-yl)-2-(methoxymethyl)-8-methyl-4H-pyrimido[1,2-b] pyridazin-4-one] |
| 77% | 400 nM | Cc1c(N2CCc3ncc(-c4ccccc4F)cc3C2)nn2c(=O)ccnc2c1C [Compound 1-343, 7-(3-(2-fluorophenyl)-7,8-dihydro-1,6-naphthyridin-6(5H)-yl)-8,9-dimethyl-4H-pyrimido[1,2-b]pyridazin-4-one] |
| 82% | 374 nM | COCc1cc(=O)n2nc(N3CCc4ncc(-c5ccc(F)nc5)cc4C3)c(C)cc2n1 [Compound 1-322, 7-(3-(6-fluoropyridin-3-yl)-7,8-dihydro-1,6-naphthyridin-6(5H)-yl)-2-(methoxymethyl)-8-methyl-4H-pyrimido[1,2-b] pyridazin-4-one] |
| 66% | 357 nM | COCc1cc(=O)n2nc(N3CCc4ncc(-c5cc(F)ccc5F)cc4C3)c(C)cc2n1 [Compound 1-336, 7-(3-(2,5-difluorophenyl)-7,8-dihydro-1,6-naphthyridin-6(5H)-yl)-2-(methoxymethyl)-8-methyl-4H-pyrimido[1,2-b] pyridazin-4-one] |
| 76% | 331 nM | COCc1cc(=O)n2nc(N3CCc4ncc(-c5ccccc5C)cc4C3)c(C)cc2n1 [Compound 1-337, 2-(methoxymethyl)-8-methyl-7-(3-(o-tolyl)-7,8-dihydro-1,6-naphthyridin-6(5H)-yl)-4H-pyrimido[1,2-b]pyridazin-4-one] |
| 71% | 311 nM | COCc1cc(=O)n2nc(N3CCc4ncc(-c5cnc(F)cc5C)cc4C3)c(C)cc2n1 [Compound 1-327, 7-(3-(6-fluoro-4-methylpyridin-3-yl)-7,8-dihydro-1,6-naphthyridin-6(5H)-yl)-2-(methoxymethyl)-8-methyl-4H-pyrimido[1,2-b]pyridazin-4-one] |
| 69% | 247 nM | Cc1cc(Cl)ncc1-c1cnc2c(c1)CN(c1nn3c(=O)ccnc3cc1C)CC2 [Compound 1-333, 7-(3-(6-chloro-4-methylpyridin-3-yl)-7,8-dihydro-1,6-naphthyridin-6(5H)-yl)-8-methyl-4H-pyrimido[1,2-b]pyridazin-4-one] |
| 67% | 244 nM | COCc1cc(=O)n2nc(N3CCc4ncc(-c5cc(F)ccc5C)cc4C3)c(C)cc2n1 [Compound 1-332, 7-(3-(5-fluoro-2-methylphenyl)-7,8-dihydro-1,6-naphthyridin-6(5H)-yl)-2-(methoxymethyl)-8-methyl-4H-pyrimido[1,2-b] pyridazin-4-one] |
| 77% | 230 nM | Cc1c(N2CCc3ncc(-c4cnn(C(F)F)c4)cc3C2)nn2c(=O)ccnc2c1C [Compound 1-339, 7-(3-(1-(difluoromethyl)-1H-pyrazol-4-yl)-7,8-dihydro-1,6-naphthyridin-6(5H)-yl)-8,9-dimethyl-4H-pyrimido[1,2-b]pyridazin-4-one] |
| 72% | 204 nM | CCc1ccccc1-c1cnc2c(c1)CN(c1nn3c(=O)ccnc3c(C)c1C)CC2 [Compound 1-342, 7-(3-(2-ethylphenyl)-7,8-dihydro-1,6-naphthyridin-6(5H)-yl)-8,9-dimethyl-4H-pyrimido[1,2-b]pyridazin-4-one] |
| 88% | 131 nM | Cc1c(N2CCc3ncc(-c4cnn(C)c4C)cc3C2)nn2c(=O)ccnc2c1C [Compound 1-338, 7-(3-(1,5-dimethyl-1H-pyrazol-4-yl)-7,8-dihydro-1,6-naphthyridin-6(5H)-yl)-8,9-dimethyl-4H-pyrimido[1,2-b]pyridazin-4-one] |
